Experimental findings from ChEMBL document CHEMBL4251590, “Novel vanillin derivatives: Synthesis, anti-oxidant, DNA and cellular protection properties” (Eur J Med Chem, 2018) are described below.

Active and inactive are the calls of the source. The rule behind the calls is not given here.

Data set [1] in a line: Antioxidant activity assessed as ferric ion reducing activity by measuring trolox equivalents using Fe3+-TPTZ after 30 mins by FRAP assay. In kind it is functional.
Data set [2] in a line: Antioxidant activity assessed as DPPH radical scavenging activity after 30 mins. The format is functional. (Loss of DPPH colour is used to gauge radical scavenging.)
The subject of data set [3] is DNA. The data set can be described thus: Antioxidant activity assessed as protection against AAPH-induced DNA damage in Escherichia coli plasmid pbr322 DNA after 1 hr by agarose gel electrophoresis method. In kind it is functional.
Data set [4] is described as follows: Antioxidant activity assessed as trolox equivalents of AAPH-induced radical scavenging activity pretreated for 30 mins followed by […] challenge measured every 2 mins for 2 hrs by ORAC-FL assay. In kind it is functional.
Data set [5] is described as follows: Antioxidant activity assessed as DPPH radical scavenging activity up to 250 uM after 30 mins. In kind it is functional.
Data set [6] concerns SH-SY5Y. As to the kind of experiment: Cytoprotective activity against H2O2-induced oxidative damage in human SH-SY5Y cells at 5 uM preincubated for 24 hrs followed by H2O2 addition and measured after 24 hrs by MTT assay. In kind it is functional.
In data set [7] the test system is SH-SY5Y. The data set can be described thus: Cytotoxicity against human SH-SY5Y cells up to 1 mM incubated for 24 hrs by MTT assay. In kind it is cell-based.
In data set [8] the test system is SH-SY5Y. The data set can be described thus: Cytoprotective activity against H2O2-induced oxidative damage in human SH-SY5Y cells at 200 uM preincubated for 24 hrs followed by H2O2 addition and measured after 24 hrs by MTT assay. In kind it is functional.
For data set [9], the system named is SH-SY5Y. The data set can be described thus: Cytoprotective activity against H2O2-induced oxidative damage in human SH-SY5Y cells up to 800 uM preincubated for 24 hrs followed by H2O2 addition and measured after 24 hrs by MTT assay. In kind it is functional, cell-based. For orientation: Tetrazolium dyes change colour on reduction, which living cells bring about.

Data set [10] has as its system DNA. The data set can be described thus: Antioxidant activity assessed as protection against AAPH-induced DNA damage in Escherichia coli plasmid pbr322 DNA assessed as DNA intensity level at 2.6 uM after 1 hr by agarose gel electrophoresis method (reference value: 0%). The format is functional.
Data set [11] deals with DNA. The data set can be described thus: Antioxidant activity assessed as protection against AAPH-induced DNA damage in Escherichia coli plasmid pbr322 DNA assessed as DNA intensity level at 4 uM after 1 hr by agarose gel electrophoresis method (reference value: 0%). In kind it is functional.
For data set [12], the system named is DNA. The data set can be described thus: Antioxidant activity assessed as protection against AAPH-induced DNA damage in Escherichia coli plasmid pbr322 DNA assessed as DNA intensity level at 0.33 uM after 1 hr by agarose gel electrophoresis method (reference value: 0%). The format is functional.
Data set [13] relates to DNA. As to the kind of experiment: Antioxidant activity assessed as protection against AAPH-induced DNA damage in Escherichia coli plasmid pbr322 DNA assessed as DNA intensity level at 1 uM after 1 hr by agarose gel electrophoresis method (reference value: 0%). In kind it is functional.
Data set [14] has as its system DNA. As to the kind of experiment: Antioxidant activity assessed as protection against AAPH-induced DNA damage in Escherichia coli plasmid pbr322 DNA assessed as DNA intensity level at 0.11 uM after 1 hr by agarose gel electrophoresis method (reference value: 0%). The format is functional.
Data set [15] concerns SH-SY5Y. The data set can be described thus: Cytoprotective activity against H2O2-induced oxidative damage in human SH-SY5Y cells at 0.1 uM preincubated for 24 hrs followed by H2O2 addition and measured after 24 hrs by MTT assay. The format is functional.
Data set [16] has as its system DNA. As to the kind of experiment: Antioxidant activity assessed as protection against AAPH-induced DNA damage in Escherichia coli plasmid pbr322 DNA assessed as DNA intensity level at 0.65 uM after 1 hr by agarose gel electrophoresis method (reference value: 0%). The format is functional.
In data set [17] the test system is SH-SY5Y. The data set can be described thus: Cytoprotective activity against H2O2-induced oxidative damage in human SH-SY5Y cells at 10 uM preincubated for 24 hrs followed by H2O2 addition and measured after 24 hrs by MTT assay. In kind it is functional.
In data set [18] the test system is SH-SY5Y. As to the kind of experiment: Cytotoxicity against human SH-SY5Y cells up to 20 uM incubated for 24 hrs by MTT assay. In kind it is cell-based.

Consider `COc1cc(CN(CCCCO)Cc2ccc(O)c(OC)c2)ccc1O`, for which the Activity in data set [1] is 0.62 equiv. Moreover, the IC50 in [2] was 21 µM.
Turning to `COc1cc(CN(CCCO)Cc2cc(OC)c(O)c(OC)c2)cc(OC)c1O`, the Activity in data set [1] stood at 1.14 equiv. Also, the IC50 in data set [2] turned out to be 12.3 µM.
The corresponding values for `c1ccc(CN(Cc2ccccc2)c2ccc(N(Cc3ccccc3)Cc3ccccc3)cc2)cc1` are 2.81 equiv and 144 µM.
As to `COc1cc(CN(CCCN(Cc2ccc(O)c(OC)c2)Cc2ccc(O)c(OC)c2)Cc2ccc(O)c(OC)c2)ccc1O`, the IC50 in data set [3] turned out to be 13.9 µM. In addition, the Activity worked out at 7.54 equiv in data set [4] and 0.74 equiv in data set [1]. The outcome in [5] was inactive.
For `COc1cc(C=O)cc(OC)c1O` [SYRINGALDEHYDE], the 50% inhibitory concentration (IC50) in data set [3] came to 9.5 µM; in [2] it was 1150 µM. The values for the Activity in [4] and in data set [1] were 1.45 equiv and 0.93 equiv, respectively.
On to `COc1cc(CN(CCCO)Cc2ccc(O)c(OC)c2)ccc1O`, for which the figures for the half-maximal inhibitory concentration (IC50) in [3] and in [2] were 3.6 µM and 13.7 µM, respectively. Also, the Activity in data set [4] is 6.02 equiv; in data set [6], 6%; in [1], 0.68 equiv; in data set [7], “Non-Toxic”; in [8], 20%.
Take `COc1cc(CN(CCCN)Cc2ccc(O)c(OC)c2)ccc1O`: the IC50 in data set [3] was determined as 61.5 µM. Moreover, the Activity in data set [4] turned out to be 4.08 equiv; in [1] it was 0.28 equiv. In data set [5], the outcome was inactive.
Turning to `COc1cccc(CN(Cc2cccc(OC)c2)c2ccc(N(Cc3cccc(OC)c3)Cc3cccc(OC)c3)cc2)c1`, the half-maximal inhibitory concentration (IC50) in data set [3] turned out to be 13.6 µM. Further, the Activity in data set [1] was 2.54 equiv. Further, the result in [5] was inactive.
Take `COc1cc(CN(CCO)Cc2ccc(O)c(OC)c2)ccc1O`: the Activity in [1] stood at 0.62 equiv. For the same molecule, in [2], the IC50 came out at 12.8 µM.
For `CCCCN(Cc1ccc(O)c(OC)c1)Cc1ccc(O)c(OC)c1`, in that order: 0.6 equiv and 21.9 µM.
For `COc1cc(CN(Cc2ccc(O)c(OC)c2)[C@H]2CC[C@H](N(Cc3ccc(O)c(OC)c3)Cc3ccc(O)c(OC)c3)CC2)ccc1O`, in that order: 0.56 equiv and 138 µM.
Regarding `COc1cc(C=O)ccc1O` [VANILLIN], the values for the IC50 in data set [3] and in data set [2] were 5.6 µM and 4050 µM, respectively. In addition, the Activity was found to be 2.19 equiv in [4] and 0.11 equiv in data set [1]. Also, the result in [9] was inactive.
On to `COc1cc(CN(Cc2ccccc2)Cc2cc(OC)c(O)c(OC)c2)cc(OC)c1O`, for which the Activity in data set [1] turned out to be 1.11 equiv. Besides, the concentration for half-maximal inhibition (IC50) in data set [2] was 15.4 µM.
Regarding `COc1cc(CNCc2ccccc2)ccc1O`, the values for the IC50 in data set [3] and in data set [2] were 4.1 µM and 107 µM, respectively. Besides, the values for the Activity in data set [4] and in [1] were 3.16 equiv and 0.16 equiv, respectively.
Turning to `COc1cc(CN(Cc2ccccc2)Cc2ccc(O)c(OC)c2)ccc1O`, the IC50 amounted to 3.8 µM in data set [3] and 29.7 µM in data set [2]. Also, the values for the Activity in data set [4] and in data set [1] were 5.34 equiv and 0.55 equiv, respectively.
For `COc1cc(CN(CCCCCCO)Cc2ccc(O)c(OC)c2)ccc1O`, the Activity in data set [1] stood at 0.64 equiv. In addition, the concentration for half-maximal inhibition (IC50) in data set [2] is 22.2 µM.
Take `COc1cc(CN(Cc2ccc(O)c(OC)c2)c2ccc(N(Cc3ccc(O)c(OC)c3)Cc3ccc(O)c(OC)c3)cc2)ccc1O`: the IC50 in data set [3] was determined as 0.6 µM; in data set [2] it was 5.8 µM. Also, the Activity was 20.4 equiv in data set [4]; 90.5% in [10]; 5.29 equiv in data set [1]; 96.1% in data set [11]; 25.1% in data set [12]; 81.9% in data set [13]. Besides, the Activity in data set [14] is 15.8%; in data set [15], 8%; in [16] it was 59.7%; in [17], 30%; in data set [18], “Non-Toxic”.
For `Oc1ccc(CN(Cc2ccc(O)cc2)c2ccc(N(Cc3ccc(O)cc3)Cc3ccc(O)cc3)cc2)cc1`, in [1], the Activity was 2.78 equiv. Besides, the IC50 in data set [2] was determined as 98 µM.
For `COc1cc(CN(CCCCCO)Cc2ccc(O)c(OC)c2)ccc1O`, in that order: 0.63 equiv and 24 µM.
For `COc1cc(/C=N/Cc2ccccc2)ccc1O`, the IC50 in data set [3] came out at 3.8 µM; in data set [2], 248 µM. Further, the Activity in data set [4] was determined as 1.85 equiv; in data set [1], 0.06 equiv.

The IC50 is the concentration at which inhibition is half-maximal.
